Measurements from US20130315843A1, “COMPOSITION FOR REDUCTION OF TRPA1 AND TRPV1 SENSATIONS” (priority 2012, published 2013).
Counter-ions that a name gives are not always drawn. Like-named read-outs stand apart in the source and are kept apart here.

Experiments:
human TRPA1 [1] = biological target: T1, human TRPA1 (Homo sapiens, UniProt O75762); test: FLIPR Ca2+ assay, reduction of L-Menthol activation of TRPA1; conditions: 100 μM antagonist vs 1 mM L-Menthol
human TRPV1 = human TRPV1 (Homo sapiens, UniProt Q8NER1); test: FLIPR Ca2+ assay, reduction of L-Menthol activation of TRPV1; conditions: for Average Ca2+ Counts / % Reduction of L-Menthol TRPV1 Activation: antagonist 100 μM against 1 mM L-Menthol; for inhibition at 100 µM: read-out: % Reduction of L-Menthol TRPV1 Activation
human TRPA1 [2] = biological target: T1, human TRPA1; test: FLIPR Ca2+ assay, reduction of hydrogen peroxide activation of TRPA1; type: cell-based; parameters: expressed in transfected cells; conditions: for inhibition at 100 µM: read-out: % Reduction of Hydrogen Peroxide TRPA1 Activation
Description: After centrifugation, a pellet of cells was formed in the bottom of the tube separating them from the supernatant solution.
The pelleted cells were re-suspended in 10 ml assay buffer and 90 μl aliquots (˜50,000 cells) per well delivered to a 96-well assay plate containing 10 μl of test compounds ([…]) or buffer control and incubated at room temperature for 30 minutes.

[3] = compound 100 μM against 200 μM hydrogen peroxide, Sets 1-4

T1 sequence (O75762 whole entry): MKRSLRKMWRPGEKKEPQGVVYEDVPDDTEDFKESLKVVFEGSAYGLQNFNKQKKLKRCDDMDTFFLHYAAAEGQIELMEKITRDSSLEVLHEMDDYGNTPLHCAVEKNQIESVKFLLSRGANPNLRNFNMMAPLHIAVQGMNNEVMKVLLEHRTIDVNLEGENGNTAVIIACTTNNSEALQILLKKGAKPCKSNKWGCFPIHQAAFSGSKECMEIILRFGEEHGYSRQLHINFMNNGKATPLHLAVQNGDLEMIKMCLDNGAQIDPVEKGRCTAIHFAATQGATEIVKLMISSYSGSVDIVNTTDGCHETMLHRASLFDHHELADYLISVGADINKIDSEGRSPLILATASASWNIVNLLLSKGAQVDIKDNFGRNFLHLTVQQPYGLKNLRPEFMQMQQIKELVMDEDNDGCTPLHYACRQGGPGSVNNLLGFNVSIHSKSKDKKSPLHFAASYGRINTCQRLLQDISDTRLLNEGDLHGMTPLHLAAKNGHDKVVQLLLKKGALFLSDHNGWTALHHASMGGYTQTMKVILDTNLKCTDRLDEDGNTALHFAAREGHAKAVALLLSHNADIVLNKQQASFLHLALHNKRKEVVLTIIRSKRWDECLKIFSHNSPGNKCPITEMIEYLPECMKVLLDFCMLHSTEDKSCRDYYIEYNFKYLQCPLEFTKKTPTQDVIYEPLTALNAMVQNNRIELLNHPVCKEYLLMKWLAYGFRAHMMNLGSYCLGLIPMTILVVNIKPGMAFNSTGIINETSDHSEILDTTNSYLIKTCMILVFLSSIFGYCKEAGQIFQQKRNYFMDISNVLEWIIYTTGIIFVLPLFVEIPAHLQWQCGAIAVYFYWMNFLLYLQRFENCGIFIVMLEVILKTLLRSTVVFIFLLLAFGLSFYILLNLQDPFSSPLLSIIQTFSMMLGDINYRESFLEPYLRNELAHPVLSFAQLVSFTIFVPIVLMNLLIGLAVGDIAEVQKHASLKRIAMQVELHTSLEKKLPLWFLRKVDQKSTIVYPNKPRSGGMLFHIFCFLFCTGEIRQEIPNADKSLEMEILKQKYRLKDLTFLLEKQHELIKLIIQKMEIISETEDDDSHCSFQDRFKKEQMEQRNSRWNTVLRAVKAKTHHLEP
Sequence of human TRPV1 (Q8NER1 whole entry): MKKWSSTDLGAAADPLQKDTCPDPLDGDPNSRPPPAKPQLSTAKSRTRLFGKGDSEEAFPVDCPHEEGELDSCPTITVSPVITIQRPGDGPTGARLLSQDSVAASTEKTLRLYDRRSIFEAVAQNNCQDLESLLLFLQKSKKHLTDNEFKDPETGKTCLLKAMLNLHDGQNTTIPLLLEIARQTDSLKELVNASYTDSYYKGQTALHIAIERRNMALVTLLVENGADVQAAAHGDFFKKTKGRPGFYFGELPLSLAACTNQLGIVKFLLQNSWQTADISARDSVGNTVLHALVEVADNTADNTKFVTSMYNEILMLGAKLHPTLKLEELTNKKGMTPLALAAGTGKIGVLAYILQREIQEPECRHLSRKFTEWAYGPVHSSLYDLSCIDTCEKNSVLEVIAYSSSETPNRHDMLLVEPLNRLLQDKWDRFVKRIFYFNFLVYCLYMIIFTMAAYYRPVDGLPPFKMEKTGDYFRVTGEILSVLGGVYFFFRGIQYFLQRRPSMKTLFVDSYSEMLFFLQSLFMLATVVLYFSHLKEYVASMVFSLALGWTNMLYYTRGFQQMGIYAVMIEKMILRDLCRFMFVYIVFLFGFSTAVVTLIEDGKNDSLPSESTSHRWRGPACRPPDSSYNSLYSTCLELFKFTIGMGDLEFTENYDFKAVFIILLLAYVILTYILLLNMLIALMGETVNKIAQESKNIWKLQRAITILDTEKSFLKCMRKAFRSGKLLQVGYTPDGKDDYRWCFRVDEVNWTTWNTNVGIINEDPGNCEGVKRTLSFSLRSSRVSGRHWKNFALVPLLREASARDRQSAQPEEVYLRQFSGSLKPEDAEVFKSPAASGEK

Compound	Block of L-Menthol activation of TRPA1 (human TRPA1 [1])	Average Ca2+ Counts (human TRPV1) [Counts]	inhibition at 100 µM (human TRPV1) [%]	also measured
CCCCCCCC=O [octanal]	BLOCK ONLY MENTHOL/TRPA1	2759.0	31.6	
COc1cc(/C=C/C(=O)O)ccc1O [ferulic acid]	BLOCK ONLY MENTHOL/TRPA1	1242.0	34.5	
iron naphthenate	BLOCK ONLY MENTHOL/TRPA1	2748.5		% Reduction of L-Menthol TRPV1 Activation (human TRPV1): 31.9%
CCCOC(=O)CCCCC(=O)OCCC [hexanedioic acid, dipropyl ester]	BLOCK ONLY MENTHOL/TRPA1	2964.0	26.6	
CCCCC/C=C/C=C/C=O [trans,trans-2,4-Decadienal]	BLOCK ONLY MENTHOL/TRPA1			
OCc1ccco1 [furfuryl alcohol]	BLOCK BOTH MENTHOL AND H2O2 ON TRPA1			Average Ca++ Counts (human TRPA1 [2]): 5585.5 Counts; Block of hydrogen peroxide activation of TRPA1 (human TRPA1 [2]): BLOCK BOTH MENTHOL AND H2O2 ON TRPA1; inhibition at 100 µM (human TRPA1 [2]): 47.3%
CC(=O)CCC=C(C)CCC=C(C)CCC=C(C)C [Farnesylacetone]	BLOCK ONLY MENTHOL/TRPA1			
CCOC(=O)C(Cc1ccccc1)C(C)=O (centres unmarked) [ethyl 2-benzylacetoacetate]	BLOCK ONLY MENTHOL/TRPA1	1548.3	20.3	
CCOC(=O)C(=O)CC(=O)CC [ethyl 2,4-dioxohexanoate]	BLOCK ONLY MENTHOL/TRPA1	1000.3	45.7	
CC(C)CC(=O)Cc1ccccc1 [4-methyl-1-phenyl-2-pentanone]	BLOCK ONLY MENTHOL/TRPA1	2707.0	32.9	
O=C/C=C/c1ccccc1 [trans-Cinnamaldehyde]	BLOCK ONLY MENTHOL/TRPA1			
CC/C=C\CCOC(=O)CCC [cis-3-hexenyl butyrate]	BLOCK ONLY MENTHOL/TRPA1	2987.5	26	
COC(C=C(C)CCC=C(C)C)OC (mixture of isomers)	BLOCK ONLY MENTHOL/TRPA1			
CC(=O)C=O [pyruvic aldehyde]	BLOCK ONLY MENTHOL/TRPA1	1504.0		% Reduction of L-Menthol TRPV1 Activation (human TRPV1): 22.3%
COc1ccccc1C [o-methylanisole]	BLOCK ONLY MENTHOL/TRPA1	1107.3	40.7	
CCC/C=C/COC(C)=O [trans-2-hexenyl acetate]	BLOCK ONLY MENTHOL/TRPA1	1119.0	40.2	
O=COCc1ccccc1 [benzyl formate]	BLOCK ONLY MENTHOL/TRPA1	2923.5	27.6	
COc1ccccc1C(=O)O [2-methoxybenzoic acid]	BLOCK ONLY MENTHOL/TRPA1	1441.7	25.2	
CCC/C=C/COC(=O)CC [propionic acid trans-2-hexen-1-yl ester]	BLOCK ONLY MENTHOL/TRPA1	1128.3	39.7	
COC(=O)c1cccnc1 [methyl nicotinate]	BLOCK ONLY MENTHOL/TRPA1	1483.7	23.3	
C=CCCCC(=O)OCC [ethyl 5-hexenoate]	BLOCK ONLY MENTHOL/TRPA1	1084.0	41.8	
CCCOC(C)OCCc1ccccc1 (centres unmarked) [2-(1-propoxyethoxy)ethylbenzene]	BLOCK ONLY MENTHOL/TRPA1	1480.7	23.4	
C=CC1(C)CCC(C(=C)C)O1 (centres unmarked) [2-Isopropenyl-5-Methyl-5-Vinyltetrahydrofuran]	BLOCK ONLY MENTHOL/TRPA1			

Compound	Block of L-Menthol activation of TRPA1 (human TRPA1 [1])	Average Ca2+ Counts (human TRPV1) [Counts]	inhibition at 100 µM (human TRPV1) [%]	also measured
CCC(C)C1CCCCC1=O (centres unmarked) [2-sec-butylcyclohexanone]	BLOCK ONLY MENTHOL/TRPA1			
CC(=O)OCC1=CCC2C[C@@H]1C2(C)C	BLOCK ONLY MENTHOL/TRPA1			
CCCCCCCC/C=C\CCCCCCCC(=O)O [Oleic acid]	BLOCK ONLY MENTHOL/TRPA1			
CCc1occc(=O)c1O [2-ethyl-3-hydroxy-4h-pyran-4-one]		1095.3	41.3	
CCOC(=O)C1OC1(C)c1ccccc1 (centres unmarked) [empg]		1164.0		% Reduction of L-Menthol TRPV1 Activation (human TRPV1): 38.1%
O=C1O[C@H]([C@@H](O)CO)C([O-])=C1O.[Na+] [(+)-sodium 1-ascorbate]		2961.0		% Reduction of L-Menthol TRPV1 Activation (human TRPV1): 26.6%
CCC(O)c1ccccc1 (centres unmarked) [1-phenyl 1-propanol]	BLOCK ONLY MENTHOL/TRPA1			
SCCc1cnccn1 [2-pyrazinylethanethiol]		992.0	46	Average Ca++ Counts (human TRPA1 [2]; [3]): 1987.5 Counts; inhibition at 100 µM (human TRPA1 [2]; [3]): 81.2%
CCC1CCC(=O)O1 (centres unmarked) [gamma-caprolactone]		1084.3	41.8	
CCCCCCCCCCO [1-decanol]		1175.7	37.5	
CC(C)=CCCC(C)CCO (racemic) [(+−)-beta; -Citronellol]	BLOCK ONLY MENTHOL/TRPA1			
CCOc1ccc(C=O)cc1 [4-ethoxybenzaldehyde]		1200.0	36.4	
CCC/C=C/C(OCC)OCC [trans-2-hexen-1-al diethyl acetal]		1169.0	37.9	
CC(O)c1ccccc1 (racemic) [(+−)-1-phenylethanol]		1087.7	41.6	
C/C=C(/C)C(=O)OCC(C)C [Angelic Acid Isobutyl Ester]	BLOCK ONLY MENTHOL/TRPA1			
CCCCCCCCCCCCC(=O)O [Tridecanoic acid]	BLOCK ONLY MENTHOL/TRPA1			
C/C=C(/C)C1CCC(C)(C)O1 (centres unmarked) [ocimene quintoxide]		1236.3		% Reduction of L-Menthol TRPV1 Activation (human TRPV1): 34.7%
O=C1O[C@H]([C@@H](O)CO)C([O-])=C1O.[Na+] [(+)-Sodium L-ascorbate]	BLOCK ONLY MENTHOL/TRPA1			
CC(C)=CCCC(C)CCO (racemic) [(+−)-beta;-citronellol]		1501.3		% Reduction of L-Menthol TRPV1 Activation (human TRPV1): 22.5%
CCCCCCCCCCCC(=O)OC [methyl laurate]		1199.7	36.4	
COc1cccc(OC)c1O [2,6-dimethoxyphenol]		1365.0	28.8	
CC(=O)OCC1=CCC2CC1C2(C)C (centres unmarked) [6,6-dimethylbicyclo[3.1.1]hept-2-ene-2-methyl acetate]		1448.3		% Reduction of L-Menthol TRPV1 Activation (human TRPV1): 24.9%
